Data: ChEMBL document CHEMBL1128989, “-Methanesulfonyl-L-valine as a novel, unnatural amino acid surrogate for P2 in the design of HIV protease inhibitors” (Bioorg Med Chem Lett, 1996)

Legend:
[1] = tested on: Human immunodeficiency virus 1; test: Antiviral activity against PBMC infected with Human immunodeficiency virus type 1 NL4-3 isolate.; type: functional
[2] = Ratio of IC50/Ki was determined
[3] = biological target: Human immunodeficiency virus type 1 protease (Human immunodeficiency virus 1, UniProt Q72874); test: Inhibitory activity against P2 site in HIV protease.

Row | Compound | CIC IC50 [1] [nM] | Ratio [2] | Ki [3] [nM]
1 | CC(C)(C)NC(=O)[C@@H]1C[C@@H]2CCCC[C@@H]2CN1C[C@@H](O)[C@H](Cc1ccccc1)NC(=O)[C@H](CC(N)=O)NC(=O)c1ccc2ccccc2n1 | 23 | – | –
2 | CC(C)(C)NC(=O)[C@@H]1C[C@@H]2CCCC[C@@H]2CN1C[C@@H](O)[C@H](Cc1ccccc1)NC(=O)[C@@H](NC(=O)OCc1ccccc1)C(C)(C)S(C)(=O)=O | 11 | 68 | 0.162
3 | CC(C)(C)NC(=O)[C@@H]1C[C@@H]2CCCC[C@@H]2CN1C[C@@H](O)[C@H](Cc1ccccc1)NC(=O)[C@@H](NC(=O)c1ccc2ccccc2n1)C(C)(C)S(C)(=O)=O | 4.9 | 28 | 0.172
4 | CC(C)(C)NC(=O)[C@@H]1C[C@@H]2CCCC[C@@H]2CN1C[C@@H](O)[C@H](Cc1ccccc1)NC(=O)[C@H](CS(C)(=O)=O)NC(=O)c1ccc2ccccc2n1 | 22 | 195 | 0.113
5 | CC(C)[C@H](NC(=O)c1ccc2ccccc2n1)C(=O)N[C@@H](Cc1ccccc1)[C@H](O)CN1C[C@H]2CCCC[C@H]2C[C@H]1C(=O)NC(C)(C)C | 54 | 98 | 0.55
6 | CSC(C)(C)[C@H](NC(=O)c1ccc2ccccc2n1)C(=O)N[C@@H](Cc1ccccc1)[C@H](O)CN1C[C@H]2CCCC[C@H]2C[C@H]1C(=O)NC(C)(C)C | 27 | 10 | 2.59
